From patent US20110237612A1, “Thienylamino pyrimidines for use as Fungicides” (BayerCropScience AG, priority 2008, published 2011)
Where two headings read alike, the source gives them in different places.

Experiments:
[1] = logP determination by HPLC on reversed-phase columns (EEC directive 79/831 Annex V.A8); conditions: for logp [b] / logp [c]: LC-MS; for logp [b] / logp [a]: acidic range; for logp [b]: pH 2.7, 0.1% aqueous formic acid and acetonitrile; for logp [c]: neutral range, pH 7.8, 0.001 molar aqueous ammonium bicarbonate and acetonitrile; for logp [a]: pH 2.3, 0.1% aqueous phosphoric acid and acetonitrile
[2] = for logp [b]: pH 2.7; for logp [c]: pH 7.8; for logp [a]: pH 2.3
Gibberella zeae = conditions: in vivo
Fusarium proliferatum = assay: Growth of Fusarium proliferatum (OD620) in the fumonisin test; type: cell-based; conditions: OD620 at the beginning and after 6 days
[3] = test system: Production of Fumonisin FB1 by Fusarium Proliferatum; assay: Production of fumonisin FB1 by Fusarium proliferatum; type: cell-based; conditions: FB1 concentration by HPLC-MS/MS after 6 days at 20° C.
physchem = conditions: pH 2.3

| SMILES | logp [b] [2] | logp [c] [2] | other results |
| --- | --- | --- | --- |
| O=C(O)c1cc(Nc2ncc(Cl)c(NC3CC3)n2)cs1 [Example 37, 5-Chloro-N^4-cyclopropyl-N^2-2-hydroxycarbonylthiophen-4-yl-2,4-diamine] | – | – | logp [b] [1]: 1.30[b]; logp [c] [1]: 0.74[c];; logP (pH 2.3) [1]: 1.30 |
| Cc1ccc(Nc2ncc(Br)c(NC3CC3)n2)s1 [Example 44] | 2.27[b] | 3.35[c]; | – |
| FC(F)(F)c1cnc(Nc2ccsc2)nc1NC1CC1 [Example 2] | 2.69[b] | – | efficacy (Gibberella zeae): ≥ 80% |
| O=C(c1cc(Nc2ncc(Cl)c(NC3CC3)n2)cs1)N1CCOCC1 [Example 19] | 1.45[b] | 2.09[c]; | – |
| CN(CC1CC1)C(=O)c1cc(Nc2ncc(Cl)c(NC3CC3)n2)cs1 [Example 38] | 2.08[b] | 2.86[c]; | – |
| COC(=O)c1cc(Nc2ncc(Cl)c(NC3CC3)n2)cs1 [Example 5, 5-Chloro-N^4-cyclopropyl-N^2-2-methoxycarbonylthiophen-4-yl-2,4-diamine] | – | – | pI50 growth (Fusarium proliferatum): 4.4; logp [a] [1]: 1.68[a]; logP (pH 2.3) [1]: 1.68; pI50 Fum [3]: 5.3 |
| COCC(C)NC(=O)c1cc(Nc2ncc(Cl)c(NC3CC3)n2)cs1 (stereo not shown) [Example 24] | 1.58[b] | 2.22 [c]; | – |
| Clc1cnc(Nc2ccsc2)nc1NC1CC1 [Example 1] | 1.63[b] | – | – |
| FC(F)CNc1nc(Nc2ccsc2)ncc1Br [Example 30] | 1.99[b] | 2.83[c]; | – |
| Clc1cc(Nc2ncc(Cl)c(NC3CC3)n2)cs1 [Example 41] | 2.63[b] | – | – |
| CCN(CC)C(=S)c1cc(Nc2ncc(Cl)c(NC3CC3)n2)cs1 [Example 40] | 2.55[b] | 3.51[c]; | – |
| Cc1ccc(Nc2ncc(C(F)(F)F)c(NC3CC3)n2)s1 [Example 36] | 3.22[b] | 3.56[c]; | – |
| O=C(c1cc(Nc2ncc(Cl)c(NC3CC3)n2)cs1)N1CCCCC1 [Example 7] | – | – | logp [a] [2]: 1.68[a] |
| C=CCNC(=O)c1cc(Nc2ncc(Cl)c(NC3CC3)n2)cs1 [Example 21] | – | 2.28[c] | – |
| Brc1cnc(Nc2ccsc2)nc1NC1CCC1 [Example 3] | 2.12[b] | – | – |
| CC(C)N(C)C(=O)c1cc(Nc2ncc(Cl)c(NC3CC3)n2)cs1 [Example 8] | – | – | logp [a] [2]: 1.6[a] |
| CCN(CC)C(=O)c1cc(Nc2ncc(Cl)c(NC3CC3)n2)cs1 [Example 9] | – | – | pI50 growth (Fusarium proliferatum): 5.5; pI50 Fum [3]: 6.0; logp [a] [2]: 1.62[a] |
| CC(=O)c1ccc(N)s1 [1-(5-Amino-2-thienyl)ethanone] | – | – | chromatographic logP (physchem): 0.42 |
| CC(=O)c1cc(Nc2ncc(Cl)c(NC3CC3)n2)cs1 [Example 13] | – | – | logp [a] [2]: 1.44[a] |
| FC(F)CNc1nc(Nc2ccsc2)ncc1Cl [Example 31] | 1.88[b] | 2.72[c]; | – |
| Clc1cnc(Nc2ccsc2)nc1NC1CCC1 [Example 18] | 1.96[b] | 3.46[c]; | – |
| CSc1ccc(Nc2ncc(Cl)c(NC3CC3)n2)s1 [Example 34] | 2.84[b] | 3.36[c]; | – |

| SMILES | logp [b] [2] | logp [c] [2] | other results |
| --- | --- | --- | --- |
| C=CCN(C)C(=O)c1cc(Nc2ncc(Cl)c(NC3CC3)n2)cs1 [Example 22] | 1.89[b] | 2.65[c]; | – |
| O=c1[nH]c(Nc2ccsc2)ncc1Cl [IX-1, 2-(Thiophen-3-ylamino)-5-chloropyrimidin-4(3H)-one] | – | – | chromatographic logP (physchem): 1.38 |
| CC(C)(C)NC(=O)c1cc(Nc2ncc(Cl)c(NC3CC3)n2)cs1 [Example 20] | 2.11[b] | – | – |
| N#Cc1cc(Nc2ncc(Cl)c(NC3CC3)n2)cs1 [Example 14] | – | – | logp [a] [2]: 2.23[a] |
| Clc1cnc(Nc2ccsc2)nc1NCC1CC1 [Example 32] | 2.33[b] | 3.31[c]; | – |
| Cc1ccc(NC(=O)OC(C)(C)C)s1 [2-(N-tert-Butoxycarbonylamino)-5-methylthiophene] | – | – | chromatographic logP (physchem): 2.89 |
| O=C(c1cc(Nc2ncc(Cl)c(NC3CC3)n2)cs1)N1CCCC1 [Example 6, 5-Chloro-N^4-cyclopropyl-N^2-2-pyrrolidin-1-ylcarbonylthiophen-4-yl-2,4-diamine] | – | – | pI50 growth (Fusarium proliferatum): 5.6; logp [a] [1]: 1.42[a]; logP (pH 2.3) [1]: 1.40; pI50 Fum [3]: 5.9 |
| N#Cc1csc(Nc2ncc(Cl)c(NC3CC3)n2)c1 [Example 12] | – | – | logp [a] [2]: 2.55[a] |
| Brc1cnc(Nc2ccsc2)nc1NC1CC1 [Example 4] | 1.71[b] | – | – |
| COCCNC(=O)c1cc(Nc2ncc(Cl)c(NC3CC3)n2)cs1 [Example 23] | 1.38[b] | 2.01[c]; | – |
| S=C(c1cc(Nc2ncc(Cl)c(NC3CC3)n2)cs1)N1CCCC1 [Example 39] | 2.31[b] | 3.23[c]; | – |
| Clc1ccc(Nc2ncc(Cl)c(NC3CC3)n2)s1 [Example 43] | – | 3.54[c]; | – |
| CC(C)Nc1nc(Nc2ccsc2)ncc1Cl [Example 27] | 1.66[b] | 3.28[c]; | – |
| Clc1cnc(Nc2ccsc2)nc1Cl [Example X-1, 4,5-Dichloro-N-(3-thienyl)pyrimidin-2-amine] | – | – | chromatographic logP (physchem): 3.55 |
| CSc1ccc(Nc2ncc(Br)c(NC3CC3)n2)s1 [Example 35] | 3.02[b] | 3.53[c]; | – |
| CS(=O)(=O)c1ccc(Nc2ncc(Cl)c(NC3CC3)n2)s1 [Example 33] | 1.97[b] | 2.02[c]; | – |
| Cc1ccc(Nc2ncc(Cl)c(NC3CC3)n2)s1 [Example 26, 5-Chloro-N^4-cyclopropyl-N^2-2-methylthiophen-5-yl-2,4-diamine] | – | – | logp [b] [1]: 2.09[b]; logp [c] [1]: 3.20[c];; logP (pH 2.3) [1]: 2.09 |
| CC1CC1Nc1nc(Nc2ccsc2)ncc1Cl (mixture of isomers) [Example 17] | – | – | logp [a] [2]: 1.97[a] |
| O=C(NO)c1cc(Nc2ncc(Cl)c(NC3CC3)n2)cs1 [Example 25] | 2.1[b] | 2.96[c]; | – |
| CC(=O)c1ccc(Nc2ncc(Cl)c(NC3CC3)n2)s1 [Example 10, N^4-Cyclopropyl-N^2-2-acetylthiophen-5-yl-5-(chloro)pyrimidine-2,4-diamine] | – | – | chromatographic logP (physchem): 1.87 |
| FC(F)(F)CNc1nc(Nc2ccsc2)ncc1Br [Example 29] | – | 3.50[c] | – |
| CC(C)Nc1nc(Nc2ccsc2)ncc1Br [Example 28] | 1.85[b] | 3.43[c]; | – |
